Test results from US11053253B2, “Macrocyclic compounds for treatment of medical disorders” (Achillion Pharmaceuticals, Inc., priority 2017, dated 2021).

molecular target: Human Factor D (Homo sapiens (Human), UniProt P00746); assay: Human Factor D Assay; type: biochemical; settings: Human Factor D 80 nM, substrate Z-L-Lys-SBzl, DTNB, A405; read-out: IC50 (Stars)
Description: Example 2. Human Factor D Assay
Human Factor D (purified from human serum, Complement Technology, Inc.) at 80 nM final concentration is incubated with test compound at various concentrations for 5 min at room temperature in 50 mM Tris, 1M NaCl, pH 7.5. A synthetic substrate Z-L-Lys-SBzl and DTNB (Ellman's reagent) are added to final concentrations of 100 µM each. Absorbance at 405 nm (A405) is recorded at 30 second intervals for 30 minutes using a microplate spectrophotometer. IC50 values are calculated by nonlinear regression of Complement Factor D reaction rates as a function of test compound concentration.

Human Factor D, sequence (P00746 26-253): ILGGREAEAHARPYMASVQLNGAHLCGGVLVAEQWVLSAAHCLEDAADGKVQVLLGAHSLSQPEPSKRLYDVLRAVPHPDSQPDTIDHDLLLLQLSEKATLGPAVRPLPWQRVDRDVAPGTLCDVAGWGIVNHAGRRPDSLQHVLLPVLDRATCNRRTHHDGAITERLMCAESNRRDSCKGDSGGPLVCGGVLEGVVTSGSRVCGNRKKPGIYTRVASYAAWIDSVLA

Row | SMILES | IC50
1 | CC(=O)c1nn(CC(=O)N2[C@H]3C[C@]4(C[C@@H]24)CN(C)CCCCC=Cc2ccc(Br)nc2NC3=O)c2ccc(-c3cnc(C)nc3)cc12 [Compound T-8, (41R,43S,45R)-42-(2-(3-acetyl-5-(2-methylpyrimidin-5-yl)-1H-indazol-1-yl)acetyl)-16-bromo-6-methyl-42,2,6-triaza-1(2,3)-pyridina-4(3,5)-bicyclo[3.1.0]hexanacyclododecaphan-11-en-3-one] | < 1000 nM
2 | CC(=O)c1nn(CC(=O)N2[C@H]3C[C@@]4(COCC=CCOCc5ccc(Br)nc5NC3=O)C[C@@H]24)c2ccc(-c3cnc(C)nc3)cc12 [Compound T-3, (41R,43S,45S)-42-(2-(3-acetyl-5-(2-methylpyrimidin-5-yl)-1H-indazol-1-yl)acetyl)-16-bromo-6,11-dioxa-42,2-diaza-1(2,3)-pyridina-4(3,5)-bicyclo[3.1.0]hexanacyclododecaphan-8-en-3-one] | < 1000 nM
3 | CC(=O)c1nn2c3c(cc(-c4cnc(C)nc4)cc13)CC=CCCCC(=O)NC[C@@]13C[C@@H](C(=O)NCc4cccc(Cl)c4F)N(C(=O)C2)[C@@H]1C3 [Compound T-82] | < 1000 nM
4 | CC(=O)c1nn(CC(=O)N2[C@H]3C[C@@]4(CNC(=O)C(F)(F)CCCCOCc5ccc(Br)nc5NC3=O)C[C@@H]24)c2cnc(-c3cnc(C)nc3)cc12 [Compound T-119] | < 1000 nM
5 | CC(=O)c1nn2c3c(cc(-c4cnc(C)nc4)cc13)CC=CCCCC(=O)NC[C@@]13C[C@@H](C(=O)Nc4ccn(CC(F)(F)F)n4)N(C(=O)C2)[C@@H]1C3 [Compound T-91] | < 1000 nM
6 | CC(=O)c1nn2c3c(cc(-c4cnc(C)nc4)cc13)CC=CCCCC(=O)NC[C@@]13C[C@@H](C(=O)Nc4nc(Br)ccc4C4CC4)N(C(=O)C2)[C@@H]1C3 [Compound T-211] | < 1000 nM
7 | CC(=O)c1nn(CC(=O)N2C[C@@]3(F)CNC(=O)C(C)(C)CCCCOCc4ccc(Br)nc4NC(=O)[C@@H]2C3)c2ccc(-c3cnc(C)nc3)cc12 [Compound T-173] | < 1000 nM
8 | CC(=O)c1nn2c3c(cc(-c4cnc(C)nc4)cc13)CC=CCCCC(=O)NC[C@]1(F)CN(C[C@@H]1C(=O)Nc1nc(C(F)(F)F)ccc1C)C(=O)C2 [Compound T-167] | < 1000 nM
9 | COCc1ccc(Br)nc1NC(=O)[C@@H]1C[C@]23CNC(=O)CCCC=CCc4cc(-c5cnc(C)nc5)cc5c(C(C)=O)nn(c45)CC(=O)N1[C@@H]2C3 [Compound T-240] | < 1000 nM
10 | CC(=O)c1nn(CC(=O)N2[C@H]3C[C@@]4(CNC(=O)C(C)(C)C=CCOCc5ccc(Br)nc5NC3=O)C[C@@H]24)c2cnc(-c3cnc(C)nc3)cc12 [Compound T-112] | < 1000 nM
11 | CC(=O)c1nn2c3c(cc(-c4cnc(C)nc4)cc13)C(O)C(O)CCCCCN(C)C[C@@]13C[C@@H](C(=O)Nc4nc(Br)ccc4C)N(C(=O)C2)[C@@H]1C3 (some centres unmarked) [Compound T-121] | < 1000 nM
12 | CC(=O)c1nn(CC(=O)N2[C@H]3C[C@@]4(CNC(=O)C(F)(F)CCCCOCc5ccc(Br)nc5NC3=O)C[C@@H]24)c2ccc(-c3cnc(C)nc3)cc12 [Compound T-120] | < 1000 nM
13 | CC(=O)c1nn(CC(=O)N2[C@H]3C[C@]4(C[C@@H]24)CN(C)CCCCC=CCc2ccc(Br)nc2NC3=O)c2ccc(-c3cnc(C)nc3)cc12 [Compound T-64] | < 1000 nM
14 | CC(=O)c1nn2c3c(cc(-c4cnc(C)nc4)cc13)CCCCCCC(=O)NC[C@@]13C[C@@H](C(=O)NCc4cccc(Cl)c4F)N(C(=O)C2)[C@@H]1C3 [Compound T-86] | < 1000 nM
15 | CC(=O)c1nn(CC(=O)N2[C@H]3C[C@]4(C[C@@H]24)CN(C)CCCCC=CCc2ccc(Br)nc2NC3=O)c2cnc(-c3cnc(C)nc3)cc12 [Compound T-56] | < 1000 nM
16 | CC(=O)N[C@H]1CC=CCOCc2ccc(Br)nc2NC(=O)[C@@H]2C[C@]3(C[C@H]3N2C(=O)Cn2nc(C(C)=O)c3cc(-c4cnc(C)nc4)ccc32)CN(C)C1=O [Compound T-103] | < 1000 nM
17 | CC(=O)c1nn2c3c(cc(-c4cnc(C)nc4)cc13)CCCCCCC(=O)NC[C@]1(F)C[C@@H](C(=O)Nc3nc(C(F)(F)F)ccc3C)N(C1)C(=O)C2 [Compound T-128] | < 1000 nM
18 | CC(=O)c1nn(CC(=O)N2[C@H]3C[C@@]4(CCCCCCCN(C)Cc5ccc(Br)nc5NC3=O)C[C@@H]24)c2cnc(-c3cnc(C)nc3)cc12 [Compound T-98] | < 1000 nM
19 | CC(=O)c1nn2c3c(cc(-c4cnc(C)nc4)cc13)CCCCCCC(=O)NC[C@@]13C[C@@H](C(=O)Nc4nc(Br)c(F)cc4C)N(C(=O)C2)[C@@H]1C3 [Compound T-85] | < 1000 nM
20 | CC(=O)c1nn(CC(=O)N2[C@H]3C[C@@]4(CNC(=O)C(C)(C)CC=CCOCc5ccc(Br)nc5NC3=O)C[C@@H]24)c2cnc(-c3cnc(C)nc3)cc12 [Compound T-114] | < 1000 nM
21 | CC(=O)c1nn(CC(=O)N2C[C@@]3(F)CNC(=O)C(C)(C)CC=CCOCc4ccc(Br)nc4NC(=O)[C@@H]2C3)c2cnc(-c3cnc(C)nc3)cc12 [Compound T-170] | < 1000 nM

Row | SMILES | IC50
22 | CCCCNC(=O)[C@@H]1C[C@]23CNC(=O)CCCCCCc4cc(-c5cnc(C)nc5)cc5c(C(C)=O)nn(c45)CC(=O)N1[C@@H]2C3 [Compound T-199] | < 1000 nM
23 | CC(=O)c1nn(CC(=O)N2[C@H]3C[C@@]4(CNC(=O)C(F)(F)CCCOCc5ccc(Br)nc5NC3=O)C[C@@H]24)c2ccc(-c3cnc(C)nc3)cc12 [Compound T-157] | < 1000 nM
24 | CC(=O)c1nn2c3c(cc(-c4cnc(C)nc4)cc13)CCCCCNC(=O)NC[C@@]13C[C@@H](C(=O)Nc4nc(C(F)(F)F)ccc4C)N(C(=O)C2)[C@@H]1C3 [Compound T-238] | < 1000 nM
25 | CC(=O)c1nn(CC(=O)N2[C@H]3C[C@@]4(CNC(=O)C(C)(C)C=CCOCc5ccc(C(F)(F)F)nc5NC3=O)C[C@@H]24)c2cnc(-c3cnc(C)nc3)cc12 [Compound T-224] | < 1000 nM
26 | CC(=O)c1nn2c3c(cc(-c4cnc(C5CC5)nc4)cc13)CCCCCCC(=O)NC[C@@]13C[C@@H](C(=O)Nc4nc(C(F)(F)F)ccc4C)N(C(=O)C2)[C@@H]1C3 [Compound T-242] | < 1000 nM
27 | CC(=O)c1nn(CC(=O)N2[C@H]3C[C@@]4(COCCCCCCc5ccc(Br)nc5NC3=O)C[C@@H]24)c2ccc(-c3cnc(C)nc3)cc12 [Compound T-39] | < 1000 nM
28 | CC(=O)c1nn2c3c(cc(-c4cnc(C)nc4)cc13)CCCCCCCCC[C@@]13C[C@@H](C(=O)Nc4nc(Br)ccc4C)N(C(=O)C2)[C@@H]1C3 [Compound T-111] | < 1000 nM
29 | CC(=O)c1nn(CC(=O)N2[C@H]3C[C@@]4(CNC(=O)C(C)(C)CCCOCc5ccc(Br)nc5NC3=O)C[C@@H]24)c2ccc(-c3cnc(C)nc3)cc12 [Compound T-130] | < 1000 nM
30 | CC(=O)c1nn(CC(=O)N2[C@H]3C[C@@]4(COCC=CCOCc5ccc(Br)nc5NC3=O)C[C@@H]24)c2c(C)cccc12 [Compound T-12, (41R,43S,45S)-42-(2-(3-acetyl-7-methyl-1H-indazol-1-yl)acetyl)-16-bromo-6,11-dioxa-42,2-diaza-1(2,3)-pyridina-4(3,5)-bicyclo[3.1.0]hexanacyclododecaphan-8-en-3-one] | < 1000 nM
31 | CC(=O)c1nn(CC(=O)N2[C@H]3C[C@@]4(CNS(=O)(=O)CCC=Cc5ccc(Br)nc5NC3=O)C[C@@H]24)c2ccc(-c3cnc(C)nc3)cc12 [Compound T-9, (41R,43S,45R)-42-(2-(3-acetyl-5-(2-methylpyrimidin-5-yl)-1H-indazol-1-yl)acetyl)-16-bromo-7-thia-42,2,6-triaza-1(2,3)-pyridina-4(3,5)-bicyclo[3.1.0]nexanacycloundecaphan-10-en-3-one 7,7-dioxide] | < 1000 nM
32 | CC(=O)c1nn2c3cc(c(-c4cnc(C)nc4)cc13)OCCC/C=C/COC[C@@]13C[C@@H](C(=O)Nc4nc(Br)ccc4C)N(C(=O)C2)[C@@H]1C3 [Compound T-79] | < 1000 nM
33 | CC(=O)c1nn(CC(=O)N2[C@H]3C[C@]4(C[C@@H]24)CN(C)CCCCCCc2ccc(Br)nc2NC3=O)c2cnc(-c3cnc(C)nc3)cc12 [Compound T-76] | < 1000 nM
34 | CC(=O)c1nn(CC(=O)N2[C@H]3C[C@@]4(COCC=CCOCc5cccnc5NC3=O)C[C@@H]24)c2ccc(-c3cnc(C)nc3)cc12 [Compound T-5, (41R,43S,45S)-42-(2-(3-acetyl-5-(2-methylpyrimidin-5-yl)-1H-indazol-1-yl)acetyl)-6,11-dioxa-42,2-diaza-1(2,3)-pyridina-4(3,5)-bicyclo[3.1.0]hexanacyclododecaphan-8-en-3-one] | < 1000 nM
35 | CC(=O)c1nn2c3c(cc(-c4cnc(C)nc4)cc13)CCCCCCC(=O)NC[C@@]13C[C@@H](C(=O)NC[Si](C)(C)C)N(C(=O)C2)[C@@H]1C3 [Compound T-196] | 1000 to 10000 nM
36 | CC(=O)c1nn2c3c(cc(-c4cnc(C)nc4)cc13)CCCCC=CCc1cccc(n1)OC[C@@]13C[C@@H](C(=O)Nc4nc(Br)ccc4C)N(C(=O)C2)[C@@H]1C3 [Compound T-137] | < 1000 nM
37 | CC(=O)c1nn2c3c(cc(-c4cnc(C)nc4)cc13)CC=CCCCC(=O)NC[C@@]13C[C@@H](C(=O)NCc4cccc(Cl)c4)N(C(=O)C2)[C@@H]1C3 [Compound T-94] | < 1000 nM
38 | CC(=O)c1nn(CC(=O)N2[C@H]3C[C@@]4(COCCCCCc5ccc(Br)nc5NC3=O)C[C@@H]24)c2ccc(-c3cnc(C)nc3)cc12 [Compound T-38] | < 1000 nM
39 | CC(=O)c1nn2c3c(cc(-c4cnc(C)nc4)cc13)CCCCCCC(=O)NC[C@@]13C[C@@H](C(=O)NC/C(F)=C(/C)c4ccccc4)N(C(=O)C2)[C@@H]1C3 [Compound T-197] | < 1000 nM
40 | CC(=O)c1nn2c3c(cc(-c4cnc(C)nc4)cc13)CC=CCCCC(=O)NC[C@@]13C[C@@H](C(=O)Nc4ccc(F)c(Br)n4)N(C(=O)C2)[C@@H]1C3 [Compound T-214] | < 1000 nM
41 | CC(=O)c1nn(CC(=O)N2C[C@@]3(F)CNC(=O)C(C)(C)CCCCOCc4ccc(Br)nc4NC(=O)[C@@H]2C3)c2cnc(-c3cnc(C)nc3)cc12 [Compound T-171] | < 1000 nM
